Data published in patent US20250382344A1, “Soluble GLP1/GIP/NPY2 Receptor Triple Agonists” (Boehringer Ingelheim International GmH, priority 2024, published 2025).

How the values were obtained:
[1] = biological target: T1, hGLP1R (Homo sapiens, UniProt P43220); test: hGLP1R CreLuc assay in 0.5% and 100% plasma (HEK-293 CRE-luciferase reporter cells); type: cell-based; settings: 0.5% human plasma, HEK-293 reporter cells, read-out: hGLP1R 0.5% hP
T1 construct: expressed in transfected cells; host or cells: HEK-293 CRE-luciferase reporter cells
Text: CHO and HEK-293 recombinant cell lines express a luciferase reporter gene under control of the CAMP responsive element (CRE). As a second recombinant protein the GLP-1 and NPY2 receptors were expressed in the reporter gene HEK cells, and the GIP receptor was expressed in the reporter gene CHO cells, respectively. Stimulation of these recombinant cells with an agonist leads to an increase of intracellular CAMP levels. In the presence of CAMP, the transcription factor CRE binding protein (CREB) binds to the CRE and to the CREB binding protein (CBP), which leads to transcription of the luciferase reporter gene. Peptides upon serial-dilution in 100% DMSO were transferred into 384-well assay plates with 5 μl pre-dispensed assay buffer (1×HBSS, 20 mM HEPES, pH7.4 supplemented with 0.5% human plasma) using acoustic dispensing on a Labcyte ECHO. Cryo-preserved transgenic reporter gene cells were thawed in assay buffer. 20 μl (10.000 cells/well) were added to the plate with the peptides and incubated for 4 hours at 37° C. in a humidified incubator. Following incubation, assay plates are equilibrated to room temperature, followed by addition of 25 μl of Bright-Glo™ Luciferase reagent, incubation at room temperature for 10 minutes and analysis of luminescence (Envision Reader). […] EC50 values were calculated by non-linear regression using sigmoid concentration-response with variable slope.
The same assays were run in the presence of 100% plasma with no additional buffer constituents.

[2] = Solubility in 0.1 M phosphate buffer at pH 7; type: physicochemical; settings: 0.1 M phosphate buffer at pH 7, 10 mg/mL final peptide concentration, shaking 2 hours at room temperature, peptides as TFA-salts; measured sample pH 6.5-7.0
[3] = biological target: T2, hGIPR (Homo sapiens, UniProt P48546); test: hGIPR CreLuc assay in 0.5% and 100% plasma (CHO CRE-luciferase reporter cells); type: cell-based; settings: 0.5% human plasma, read-out: hGIPR 0.5% hP
T2 construct: expressed in transfected cells; host or cells: CHO CRE-luciferase reporter cells
T2 sequence (P48546 22-466): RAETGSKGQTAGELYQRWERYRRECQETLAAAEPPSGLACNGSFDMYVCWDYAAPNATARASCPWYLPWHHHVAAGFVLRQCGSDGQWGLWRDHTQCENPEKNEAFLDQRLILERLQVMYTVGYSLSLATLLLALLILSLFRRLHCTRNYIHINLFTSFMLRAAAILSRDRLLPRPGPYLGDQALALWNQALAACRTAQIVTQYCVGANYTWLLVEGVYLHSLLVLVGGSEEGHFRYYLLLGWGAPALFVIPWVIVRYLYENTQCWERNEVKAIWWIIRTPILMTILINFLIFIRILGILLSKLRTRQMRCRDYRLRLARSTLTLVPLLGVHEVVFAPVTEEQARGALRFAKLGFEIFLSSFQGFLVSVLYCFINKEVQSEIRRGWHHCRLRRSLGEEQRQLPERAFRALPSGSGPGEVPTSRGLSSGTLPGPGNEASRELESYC

T1 sequence (P43220 24-463): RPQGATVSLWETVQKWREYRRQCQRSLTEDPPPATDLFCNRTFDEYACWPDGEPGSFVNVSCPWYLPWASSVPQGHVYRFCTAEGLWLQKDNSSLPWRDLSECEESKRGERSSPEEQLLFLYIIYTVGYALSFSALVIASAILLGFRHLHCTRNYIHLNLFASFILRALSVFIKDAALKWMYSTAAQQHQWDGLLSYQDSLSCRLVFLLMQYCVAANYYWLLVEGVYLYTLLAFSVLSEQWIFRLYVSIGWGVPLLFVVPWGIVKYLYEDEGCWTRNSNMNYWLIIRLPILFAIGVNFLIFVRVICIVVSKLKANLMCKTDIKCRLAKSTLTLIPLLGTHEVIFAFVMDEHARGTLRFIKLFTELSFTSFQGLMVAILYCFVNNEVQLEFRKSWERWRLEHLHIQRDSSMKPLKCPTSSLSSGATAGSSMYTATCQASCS

SMILES: CC[C@H](C)[C@H](NC(=O)[C@H](CC(C)C)NC(=O)[C@H](Cc1c[nH]cn1)NC(=O)[C@H](CCCNC(=N)N)NC(=O)[C@@H](NC(=O)[C@H](Cc1ccccc1)NC(=O)[C@H](C)NC(=O)C(C)(C)NC(=O)[C@H](CCC(N)=O)NC(=O)[C@H](C)NC(=O)[C@H](CCC(N)=O)NC(=O)[C@H](CCCCN)NC(=O)[C@H](CCC(=O)O)NC(=O)[C@H](CC(C)C)NC(=O)C(C)(C)NC(=O)[C@@H](NC(=O)[C@H](CO)NC(=O)[C@H](Cc1ccc(O)cc1)NC(=O)[C@H](CC(=O)O)NC(=O)[C@H](CO)NC(=O)[C@@H](NC(=O)[C@H](Cc1ccccc1)NC(=O)[C@@H](NC(=O)CNC(=O)[C@H](CCC(=O)O)NC(=O)C(C)(C)NC(=O)[C@@H](N)Cc1ccc(O)cc1)[C@@H](C)O)[C@@H](C)O)[C@@H](C)CC)C(C)C)C(=O)N[C@@H](CC(N)=O)C(=O)N[C@@H](CCCCNC(=O)CCCCCNC(=O)CC[C@H](NC(=O)CC[C@H](NC(=O)CC[C@H](NC(=O)CC[C@H](NC(=O)CC[C@H](NC(=O)CCCCCCCCCCCCCCCCC(=O)O)C(=O)O)C(=O)O)C(=O)O)C(=O)O)C(=O)O)C(=O)NC(C)(C)C(=O)N[C@H](C(=O)N[C@@H](CCCNC(=N)N)C(=O)N[C@@H](CCC(N)=O)C(=O)N[C@@H](CCCNC(=N)N)C(=O)N[C@@H](Cc1ccc(O)cc1)C(N)=O)[C@@H](C)O [Compound 13, Y-Aib-E-G-T-F-T-S-D-Y-S-I-Aib-L-E-K-Q-A-Q-Aib-A-F-V-R-H-L-I-N-K(1,3)-Aib-T-R-Q-R-Y-NH2.C18DA-gGlu-gGlu-gGlu-gGlu-gGlu-AHX(1,2)]
- EC50 [1]: 0.4 nM
- solubility at 2 h [2]: 4300 µg/mL
- EC50 [3]: 0.1 nM

SMILES: CC[C@H](C)[C@H](NC(=O)[C@H](CC(C)C)NC(=O)[C@H](Cc1c[nH]cn1)NC(=O)[C@H](CCCNC(=N)N)NC(=O)[C@@H](NC(=O)[C@H](Cc1ccccc1)NC(=O)[C@H](C)NC(=O)C(C)(C)NC(=O)[C@H](CCC(N)=O)NC(=O)[C@H](C)NC(=O)[C@H](CCC(N)=O)NC(=O)[C@H](CCC(N)=O)NC(=O)[C@H](CCC(=O)O)NC(=O)[C@H](CC(C)C)NC(=O)C(C)(C)NC(=O)[C@@H](NC(=O)[C@H](CO)NC(=O)[C@H](Cc1ccc(O)cc1)NC(=O)[C@H](CC(=O)O)NC(=O)[C@H](CO)NC(=O)[C@@H](NC(=O)[C@H](Cc1ccccc1)NC(=O)[C@@H](NC(=O)CNC(=O)[C@H](CCC(=O)O)NC(=O)C(C)(C)NC(=O)[C@@H](N)Cc1ccc(O)cc1)[C@@H](C)O)[C@@H](C)O)[C@@H](C)CC)C(C)C)C(=O)N[C@@H](CC(N)=O)C(=O)N[C@@H](CCCCNC(=O)[C@@H](N)CCCCNC(=O)CC[C@H](NC(=O)CC[C@H](NC(=O)CC[C@H](NC(=O)CC[C@H](NC(=O)CC[C@H](NC(=O)CC[C@H](NC(=O)CCCCCCCCCCCCCCCCC(=O)O)C(=O)O)C(=O)O)C(=O)O)C(=O)O)C(=O)O)C(=O)O)C(=O)NC(C)(C)C(=O)N[C@H](C(=O)N[C@@H](CCCNC(=N)N)C(=O)N[C@@H](CCC(N)=O)C(=O)N[C@@H](CCCNC(=N)N)C(=O)N[C@@H](Cc1ccc(O)cc1)C(N)=O)[C@@H](C)O [Compound 23, Y-Aib-E-G-T-F-T-S-D-Y-S-I-Aib-L-E-Q-Q-A-Q-Aib-A-F-V-R-H-L-I-N-K(1,3)-Aib-T-R-Q-R-Y-NH2.C18DA-gGlu-gGlu-gGlu-gGlu-gGlu-gGlu-eLys(1,2)]
- EC50 [1]: 0.5 nM
- solubility at 2 h [2]: 9400 µg/mL
- EC50 [3]: 0.2 nM
